# Legend:
# WBP2 = test: Immunoblot of WBP2 expression in drug-treated WBP2-Y192-231E mutant-expressing MCF7; type: cell-based, human; settings: Y192-231E-expressing MCF7; 15 μM FH535; day 2-4 post-treatment
# Experimental: A: Whole cell lysates from vector, WBP2-WT, WBP2-Y192-231E mutant and WBP2-Y192-231F mutant expressing MCF7 or Y192-231E mutant expressing MCF7 with WBP2 knockdown were used for IB analysis with antibodies indicated. B: Vector, WBP2-WT, WBP2-Y192-231E mutant or WBP2-Y192-231F mutant-expressing MCF7 were co-transfected with TOPFlash (top panel) or ERE-Luciferase (bottom panel) reporter construct. For cells co-transfected ERE-luciferase, they were either left alone or stimulated with 50 ng/ml Wnt3a ligand for 16 hrs. TCF/ERα luciferase activities in various conditions were then assayed. **P<0.01, ***P<0.001, Student's t-test (2-tailed). […] Cell numbers were measured. […]
# Whole cell lysates from vector, WBP2-WT, WBP2-Y192-231E mutant and WBP2-Y192-231F mutant expressing MCF7 (A) or Y192-231E mutant expressing MCF7 with WBP2 knockdown (B) were used for IB analysis with antibodies indicated. Their expression levels were quantified in three independent experiments and the averages were presented relative to actin. […] TCF(C)/ER[…](D) luciferase activities in various conditions were then assayed and analyzed in relative to untreated vector control. **P<0.01, ***P<0.001, Student's t-test (2-tailed). […] Cell numbers were measured daily and compared in relative to vehicle treated vector-expressing cells on Day 0. […] Cell numbers were measured and compared in relative to vehicle-treated cells. […]
# [1] = test system: WBP2-Y192-231E mutant-expressing MCF7; test: Cell proliferation (MTS / cell numbers) of WBP2-Y192-231E mutant-expressing MCF7; type: cell-based, human
# Experimental: A: Whole cell lysates from vector, WBP2-WT, WBP2-Y192-231E mutant and WBP2-Y192-231F mutant expressing MCF7 or Y192-231E mutant expressing MCF7 with WBP2 knockdown were used for IB analysis with antibodies indicated. B: Vector, WBP2-WT, WBP2-Y192-231E mutant or WBP2-Y192-231F mutant-expressing MCF7 were co-transfected with TOPFlash (top panel) or ERE-Luciferase (bottom panel) reporter construct. For cells co-transfected ERE-luciferase, they were either left alone or stimulated with 50 ng/ml Wnt3a ligand for 16 hrs. TCF/ERα luciferase activities in various conditions were then assayed. **P<0.01, ***P<0.001, Student's t-test (2-tailed). C: Vector or WBP2-Y192-231E mutant-expressing MCF7 were treated with indicated concentrations of Tamoxifen(Tam) and/or FH535. Cell numbers were measured. D: Whole cell lysates from WBP2-Y192-231E mutant-expressing MCF7 treated with 2 μM Tam and/or 15 μM FH5353 were harvested at day 2-4 post-treatment and used for IB analysis with antibodies indicated.
# Effect of knockdown of E2F1 and E2F3 on MCF7 cells overexpressing WBP2-Y192-231E. A. MCF7 cells expressing WBP2-Y192-231E were transfected with indicated siRNAs and knockdown efficiency was confirmed using western blotting. B. Cells were co-transfected with indicated siRNAs and E2F reporter plasmid and harvested for luciferase assay after 48 hours. Luciferase readings were normalized against constitutive TK promoter renilla luciferase readings. C. Cells were transfected with indicated siRNAs and BrdU incorporation assay was performed. Percentages of BrdU positive cells relative to control siRNA treated cells were plotted as bar charts. D. Cells were transfected with indicated siRNAs. MTS assay was performed on day 3. Percentages of cell proliferation relative to control siRNA treated cells were plotted as bar charts.
# Whole cell lysates from vector, WBP2-WT, WBP2-Y192-231E mutant and WBP2-Y192-231F mutant expressing MCF7 (A) or Y192-231E mutant expressing MCF7 with WBP2 knockdown (B) were used for IB analysis with antibodies indicated. Their expression levels were quantified in three independent experiments and the averages were presented relative to actin. Representative blots (order in lanes from left to right: vector, WBP2, Y192-231E, Y192F) were presented as insets to the bar graphs. **P<0.01, ***P<0.001, Student's t-test (2-tailed) relative to vector. Vector, WBP2-WT, WBP2-Y192-231E mutant or WBP2-Y192-231F mutant-expressing MCF7 were cotransfected with TOPFlash(C) or ERE-Luciferase(D) reporter construct. For cells co-transfected ERE luciferase, they were either left alone or stimulated with 50 ng/ml Wnt3a ligand for 16 hrs. TCF(C)/ER[…](D) luciferase activities in various conditions were then assayed and analyzed in relative to untreated vector control. **P<0.01, ***P<0.001, Student's t-test (2-tailed). E: Vector or WBP2-Y192-231E mutant-expressing MCF7 were treated with indicated concentrations of 2 µM tamoxifen (Tam) and/or 15 µM FH535 for 4 days. Cell numbers were measured daily and compared in relative to vehicle treated vector-expressing cells on Day 0. F: Vector or WBP2-Y192-231E mutant-expressing MCF7 were treated with indicated concentrations (0-50 µM) of FH535 for 2 days. Cell numbers were measured and compared in relative to vehicle-treated cells. Their […] were analyzed statistically with SPSS 13.0. G: Whole cell lysates from WBP2-Y192-231E mutant-expressing MCF7 treated with 2 μM Tam and/or 15 μM FH5353 were harvested at day 2-4 post-treatment and used for IB analysis with antibodies indicated. H: Vector or WBP2-Y192-231E mutant-expressing MCF7 were treated with indicated concentrations of 100 nM fulvestrant and/or 15 µM FH535 for 4 days. Cell numbers were measured on day 2 and day 4 and compared in relative to vehicle-treated control at each day (Top Panel). These treated cells were harvested for IB analysis with antibodies indicated (Bottom Panel). […]
smiles,measurement,setting,value
Cc1cc([N+](=O)[O-])ccc1NS(=O)(=O)c1cc(Cl)ccc1Cl [FH535],WBP2 expression,WBP2,without affecting
same,blocking of phospho-WBP2-mediated cancer cell growth compared with tamoxifen and fulvestrant,[1],more pronouncedly
same,sensitivity of Y192-231E-expressing MCF7 to FH535-mediated growth inhibition compared with vector-expressing MCF7,[1]; 0-50 μM FH535 for 2 days,more sensitive
same,inhibition of growth / reduction of proliferation,"[1]; MCF7 cells expressing Y192-231E mutant, day 4, 100 nM fulvestrant or 15 μM FH535",~65%
same,"growth inhibition, dose dependence","[1]; Y192-231E stable transfectant, 0-50 μM FH535 for 2 days",dose dependent growth inhibition
same,growth rate,"[1]; Y192-231E-expressing MCF7, FH535 alone (15 μM), to close to vector-expressing MCF7 at day 3",significantly reduced

# — US9429582B2, “Tyrosine-phosphorylated WBP2, a novel cancer target and biomarker” (National University of Singapore, priority 2010, dated 2016)
